Results from article PMC10315697, “Evaluation of ^134Ce/^134La as a PET Imaging Theranostic Pair for ^225Ac α-Radiotherapeutics” (Journal of Nuclear Medicine, 2023).

What was measured:
[1] = set-up: method as in PMID 34190542; details: for nonradioactive cerium ref 14; cited from earlier work
[2] = Ex vivo biodistribution of free and chelated ^134Ce/^225Ac in healthy mice; details: healthy wild-type C57BL/6 mice, tail vein injection, 1 h for ^134Ce

Compound	stability (KLnL) [1]	blood uptake [2]	bone uptake [2]	kidney uptake [2]	liver uptake [2]
O=C(O)c1cccc(CN2CCOCCOCCN(Cc3cccc(C(=O)O)n3)CCOCCOCC2)n1 [MACROPA]	15.1				
O=C([O-])CN1CCN(CC(=O)[O-])CCN(CC(=O)[O-])CCN(CC(=O)[O-])CC1.[225Ac+3] [^225Ac-DOTA]		0.23 ± 0.02 %ID/g	2.26 ± 0.56 %ID/g	3.07 ± 0.99 %ID/g	0.28 ± 0.008 %ID/g
[225Ac+3].[Cl-].[Cl-].[Cl-] [^225AcCl3]			29.56 ± 2.40 %ID/g		38.33 ± 6.75 %ID/g
[Cl][134Ce]([Cl])[Cl] [^134CeCl3]			15.54 ± 2.69 %ID/g		71.5 ± 4.3 %ID/g
